Experimental data: patent US7074742B2, “Pyridinyl amides and imides for use as fungicides” (E. I. du Pont de Nemours and Company, priority 2000, dated 2006)
Marks after values point to notes of the source that are not given here.

Experiments:
Assay type in all cases: in vivo
Plasmopara viticola [1] = assay: TEST E: preventive spray on grape seedlings, grape downy mildew, disease rating
Puccinia recondita = assay: TEST B: preventive spray on wheat seedlings, wheat leaf rust, disease rating; conditions: 100 = 100% disease control, 0 = no control, concentration not marked in table
Pyricularia oryzae = conditions: preventive spray on rice seedlings; 100 = 100% disease control, 0 = no control; concentration not marked in table
[2] = tested on: Erysiphe graminis f. sp. tritici; assay: TEST A: preventive spray on wheat seedlings, wheat powdery mildew, disease rating; conditions: 100 = 100% disease control, 0 = no control relative to controls, concentration not marked in table
Phytophthora infestans = conditions: preventive spray on tomato seedlings; 100 = 100% disease control, 0 = no control; concentration not marked in table
Plasmopara viticola [3] = assay: TEST G: curative spray on inoculated grape seedlings, grape downy mildew, disease rating; conditions: for Test G disease control rating (grape downy mildew, curative): curative spray on inoculated grape seedlings
[4] = 100 = 100% disease control, 0 = no control, concentration not marked in table

Structure (SMILES)	Test E disease control rating (grape downy mildew) (Plasmopara viticola [1]; [4])	Test B disease control rating (wheat leaf rust) (Puccinia recondita)	Test C disease control rating (rice blast) (Pyricularia oryzae)	Test A disease control rating (wheat powdery mildew) [2]	Test D disease control rating (potato and tomato late blight) (Phytophthora infestans)	Test E disease control rating (grape downy mildew) (Plasmopara viticola [1]; 100 ppm)	Test G disease control rating (grape downy mildew, curative) (Plasmopara viticola [3]; 20 ppm)	curative utility (Plasmopara viticola [3]; curative (post-infection) use, especially for grape downy mildew, statement in words)	Test G disease control rating (grape downy mildew, curative) (Plasmopara viticola [3]; concentration not marked in table)
Cc1ccc(C(=O)NCc2ncc(C(F)(F)F)cc2Cl)c(Cl)n1 [Cmpd 14]	98%	19%	90%	0%	100%	–	–	–	–
Cc1ncccc1C(=O)NCc1ccc(Cl)nc1 [Cmpd 32]	–	0%	0%	0%	32%	–	–	–	–
CC(NC(=O)c1c(Cl)ccnc1Cl)c1ncc(C(F)(F)F)cc1Cl (single isomer, unassigned) [Cmpd 38]	–	–	–	–	–	69* %	0** %	–	–
Cc1ccc(C(=O)NCc2ncc(C(F)(F)F)cc2Cl)c(O)n1 [Cmpd 19]	8%	9%	0%	0%	7%	–	–	–	–
Cc1nc(Cl)ccc1C(=O)NCc1ncc(C(F)(F)F)cc1Cl [Cmpd 25]	16%	9%	13%	0%	79%	–	–	–	–
Cc1nc(C(F)(F)F)ccc1C(=O)NCc1ncc(C(F)(F)F)cc1Cl [Cmpd 20]	8%	28%	87%	0%	25%	–	–	–	–
O=C(NCc1ncc(C(F)(F)F)cc1Cl)c1ccc(C(F)(F)F)nc1Br [Cmpd 18]	0%	9%	80%	0%	32%	–	–	–	–
Cc1cnc(C(=O)NCc2ncc(C(F)(F)F)cc2Cl)c(Cl)c1 [Compound 2]	–	–	–	0%	100%	–	–	significant curative utility	99%
COc1cc(C(=O)NCc2ncc(C(F)(F)F)cc2Cl)cc(Cl)n1 [Cmpd 34]	–	44%	–	0%	31%	–	–	–	–
O=C(NCc1ncc(C(F)(F)F)cc1Cl)c1ccc(C(F)(F)F)nc1 [Cmpd 26]	0%	32%	0%	0%	25%	–	–	–	–
Cc1ncccc1C(=O)NCc1ccc(Oc2cccc(C(F)(F)F)c2)nc1 [Cmpd 33]	–	–	–	91%	71%	–	–	–	–
O=C(NCc1ncc(C(F)(F)F)cc1Cl)c1cncc(C#Cc2ccccc2)c1 [Cmpd 17]	0%	0%	0%	13%	25%	–	–	–	–
O=C(NCc1ncc(C(F)(F)F)cc1Cl)c1cccnc1O [Cmpd 11]	8%	9%	0%	0%	7%	–	–	–	–
O=C(NCc1ncc(C(F)(F)F)cc1Cl)c1cccnc1Nc1cccc(C(F)(F)F)c1 [Cmpd 27]	16%	0%	0%	0%	32%	–	–	–	–
O=C(NCc1ncc(C(F)(F)F)cc1Cl)c1ccc(C(F)(F)F)nc1-c1ccccc1 [Cmpd 24]	8%	0%	7%	0%	25%	–	–	–	–
Cc1nc(C(F)(F)C(F)(F)F)ccc1C(=O)NCc1ncc(C(F)(F)F)cc1Cl [Cmpd 21]	8%	68%	88%	69%	16%	–	–	–	–
CCOc1ncccc1C(=O)NCc1ncc(C(F)(F)F)cc1Cl [Cmpd 13]	23%	9%	0%	0%	3%	–	–	–	–
COc1ncccc1C(=O)NCc1ncc(C(F)(F)F)cc1Cl [Cmpd 12]	24%	19%	0%	0%	7%	–	–	–	–
COCc1nc(C(F)(F)F)ccc1C(=O)NCc1ncc(C(F)(F)F)cc1Cl [Cmpd 23]	8%	9%	7%	72%	32%	–	–	–	–
O=C(NCc1ncc(C(F)(F)F)cc1Cl)c1cncc(Br)c1 [Cmpd 10]	0%	9%	74%	0%	16%	–	–	–	–
Nc1ncccc1C(=O)NCc1ncc(C(F)(F)F)cc1Cl [Cmpd 9]	0%	28%	0%	0%	7%	–	–	–	–
O=C(NCc1ncc(C(F)(F)F)cc1Cl)c1cnc(Cl)c(Cl)c1 [Cmpd 7]	–	0%	–	0%	–	–	–	–	–
COc1nc(C(F)(F)F)ccc1C(=O)NCc1ncc(C(F)(F)F)cc1Cl [Cmpd 22]	0%	0%	0%	0%	7%	–	–	–	–
O=C(NCc1ncc(C(F)(F)F)cc1Cl)c1cccnc1Sc1ccccc1 [Cmpd 16]	8%	9%	100%	0%	34%	–	–	–	–
O=C(NCc1ncc(C(F)(F)F)cc1Cl)c1cccnc1Oc1ccccc1 [Cmpd 15]	8%	38%	30%	0%	7%	–	–	–	–
